{"source": "patent US20180298405A1", "about": "“METHODS AND COMPOSITIONS TO INCREASE HUMAN SOMATIC CELL NUCLEAR TRANSFER (SCNT) EFFICIENCY BY REMOVING HISTONE H3-LYSINE TRIMETHYLATION, AND DERIVATION OF HUMAN NT-ESC” (CHILDREN'S MEDICAL CENTER CORPORATION, priority 2015, published 2018)", "tested_on": "reprogramming resistant regions (RRRs) / ZGA genes", "experiment": "RNA-seq of late 8-cell human SCNT embryos with or without KDM4A mRNA injection (ZGA of RRRs, KDM4A-responsive genes)", "assay_type": "cell-based", "conditions": "8-cell embryos", "excerpt": "A sliding window (size 20 kb, step size 10 kb) was used to assess the genome-wide expression level of 4-cell and 8-cell human embryos. For each window, the expression level was quantified with normalized RPM (reads per millions of uniquely mapped reads). […] These activated regions were classed into three groups based on their expression differences in human SCNT and IVF 8-cell embryos.\nThe SCNT embryos used for ZGA analysis were generated using oocytes donated by a single healthy person (#64) and dermal fibroblast cells from an AMD patient (DFB-8). SCNT and IVF embryos were cultured up to late 8-cell stage, when the compaction of blastomeres is initiated, then they were treated briefly with acid Tyrode solution to remove zona pellucida. To prepare for the 8-cell SCNT embryo, oocytes from a single oocyte donor, and skin fibroblast cells from a single somatic nuclear donor were used. All the procedures are the same as described in the “Human SCNT procedure and KMD4A mRNA injection” section. Only embryos that reached the late 8-cell stage synchronically 74 hours post activation were collected and used for this experiment.\nFor preparation of the control IVF embryos, several donated early 8-cell stage IVF embryos were thawed and cultured for 5-7 hours to allow them to reach late 8-cell stage before being processed. After removal of the zona pellucida, the denuded embryos were washed 3 times in PBS, loaded into RNAse and DNAse free PCR tubes, spin downed, and snap frozen in liquid nitrogen. Then, they were kept at −80° C. until use. As controls, dermal fibroblast cells of somatic nuclear donors were also prepared. Those fibroblast cells were cultured in a 25 cm^2 flask in DMEM 10% FBS, and approximately 10,000 cells/donor were collected, snap frozen, and stored at −80° C. until use.\nFive 8-cell embryos for each group were directly lysed and used for cDNA synthesis using SMART-Seq v4 Ultra Low Input RNA Kit (Clontech). For MEF donor, 10 ng total RNA was used for cDNA synthesis using SMART-Seq v4 Ultra Low Input RNA Kit. After amplification, the cDNA samples were fragmented using Covaris sonicator M220 to an average size of 150 bp (Covaris). Sequencing libraries were made with the fragmented DNA using NEBNext Ultra DNA Library Prep Kit for Illumina according to manufacturer's instruction (New England Biolabs) with different barcodes. For each RNA-seq analysis of hESCs, 1 μg total RNA was used for mRNA purification. Barcoded RNA-seq libraries were generated using NEBNext Ultra Directional RNA Library Prep Kit for Illumina (New England Biolabs). Single end 50 bp sequencing was performed on a HiSeq 2500 sequencer (Illumina). Sequencing reads were mapped to the human genome (hg19) with Tophat2. All programs were performed with default settings (unless otherwise specified). At least 22 million uniquely mapped reads were obtained for each sequencing library, and subsequently assembled into transcripts guided by the reference annotation (Refseq gene models) with Cufflinks v2.0.2. Expression level of each gene was quantified with normalized FPKM (fragments per kilobase of exon per million mapped fragments). Statistical analyses were performed with R (available at: “www.r-project.org/”). Independent 2 group Wilcoxon rank sum tests were used to compare distributions using the wilcox.test function in R. Pearson's r coefficient was calculated using the cor function with default parameters. The hierarchical clustering analysis of the global gene expression pattern in different samples was carried out using heatmap.2 function (gplots package) in R."}
{"substance": "KDM4A mRNA: in vitro transcribed mRNA of full length human KDM4A/JHDM3A cDNA, an H3K9me3 demethylase (SEQ ID NO: 1)", "values": [{"measurement": "FAM83D Fold Change (log2) [KDM4A SCNT/Control SCNT]", "result": 1.32, "unit": "log2"}, {"measurement": "FAM133B Fold Change (log2) [KDM4A SCNT/Control SCNT]", "result": 1.1, "unit": "log2"}, {"measurement": "FAM151A Fold Change (log2) [KDM4A SCNT/Control SCNT]", "result": 1.99, "unit": "log2"}, {"measurement": "FAM162A Fold Change (log2) [KDM4A SCNT/Control SCNT]", "result": 1.73, "unit": "log2"}, {"measurement": "FAM200A Fold Change (log2) [KDM4A SCNT/Control SCNT]", "result": 1.17, "unit": "log2"}, {"measurement": "FASTKD5 Fold Change (log2) [KDM4A SCNT/Control SCNT]", "result": 1.05, "unit": "log2"}, {"measurement": "FBXL12 Fold Change (log2) [KDM4A SCNT/Control SCNT]", "result": 1.74, "unit": "log2"}, {"measurement": "FMR1NB Fold Change (log2) [KDM4A SCNT/Control SCNT]", "result": 1.49, "unit": "log2"}, {"measurement": "FOXN2 Fold Change (log2) [KDM4A SCNT/Control SCNT]", "result": 1.29, "unit": "log2"}, {"measurement": "GALM Fold Change (log2) [KDM4A SCNT/Control SCNT]", "result": 1.55, "unit": "log2"}, {"measurement": "GIP Fold Change (log2) [KDM4A SCNT/Control SCNT]", "result": 1.59, "unit": "log2"}, {"measurement": "GJA1 Fold Change (log2) [KDM4A SCNT/Control SCNT]", "result": 1.36, "unit": "log2"}, {"measurement": "GOLGB1 Fold Change (log2) [KDM4A SCNT/Control SCNT]", "result": 1.58, "unit": "log2"}, {"measurement": "GUCA1B Fold Change (log2) [KDM4A SCNT/Control SCNT]", "result": 1.02, "unit": "log2"}, {"measurement": "GUSBP1 Fold Change (log2) [KDM4A SCNT/Control SCNT]", "result": 1.11, "unit": "log2"}, {"measurement": "GUSBP4 Fold Change (log2) [KDM4A SCNT/Control SCNT]", "result": 1.12, "unit": "log2"}, {"measurement": "H3F3A Fold Change (log2) [KDM4A SCNT/Control SCNT]", "result": 1.84, "unit": "log2"}, {"measurement": "IFI30 Fold Change (log2) [KDM4A SCNT/Control SCNT]", "result": 1.05, "unit": "log2"}, {"measurement": "IL13RA2 Fold Change (log2) [KDM4A SCNT/Control SCNT]", "result": 1.85, "unit": "log2"}, {"measurement": "KHDC1 Fold Change (log2) [KDM4A SCNT/Control SCNT]", "result": 1.89, "unit": "log2"}, {"measurement": "KHDC1L Fold Change (log2) [KDM4A SCNT/Control SCNT]", "result": 1.54, "unit": "log2"}, {"measurement": "KITLG Fold Change (log2) [KDM4A SCNT/Control SCNT]", "result": 2.36, "unit": "log2"}, {"measurement": "KLF17 Fold Change (log2) [KDM4A SCNT/Control SCNT]", "result": 1.19, "unit": "log2"}, {"measurement": "KLK4 Fold Change (log2) [KDM4A SCNT/Control SCNT]", "result": 1.68, "unit": "log2"}, {"measurement": "KLK11 Fold Change (log2) [KDM4A SCNT/Control SCNT]", "result": 1.76, "unit": "log2"}, {"measurement": "KPTN Fold Change (log2) [KDM4A SCNT/Control SCNT]", "result": 4.35, "unit": "log2"}, {"measurement": "LARP6 Fold Change (log2) [KDM4A SCNT/Control SCNT]", "result": 1.35, "unit": "log2"}, {"measurement": "LEMD3 Fold Change (log2) [KDM4A SCNT/Control SCNT]", "result": 1.11, "unit": "log2"}, {"measurement": "LIM2 Fold Change (log2) [KDM4A SCNT/Control SCNT]", "result": 1.99, "unit": "log2"}, {"measurement": "LINC00263 Fold Change (log2) [KDM4A SCNT/Control SCNT]", "result": 1.39, "unit": "log2"}, {"measurement": "LOC284408 Fold Change (log2) [KDM4A SCNT/Control SCNT]", "result": 2.24, "unit": "log2"}, {"measurement": "LOC347411 Fold Change (log2) [KDM4A SCNT/Control SCNT]", "result": 1.36, "unit": "log2"}, {"measurement": "LOC401397 Fold Change (log2) [KDM4A SCNT/Control SCNT]", "result": 1.75, "unit": "log2"}, {"measurement": "LOC643955 Fold Change (log2) [KDM4A SCNT/Control SCNT]", "result": 1.44, "unit": "log2"}, {"measurement": "LOC653513 Fold Change (log2) [KDM4A SCNT/Control SCNT]", "result": 2.12, "unit": "log2"}, {"measurement": "LOC723809 Fold Change (log2) [KDM4A SCNT/Control SCNT]", "result": 1.15, "unit": "log2"}, {"measurement": "LOC100129515 Fold Change (log2) [KDM4A SCNT/Control SCNT]", "result": 1.03, "unit": "log2"}, {"measurement": "LOC100289211 Fold Change (log2) [KDM4A SCNT/Control SCNT]", "result": 2.34, "unit": "log2"}, {"measurement": "LOC100505854 Fold Change (log2) [KDM4A SCNT/Control SCNT]", "result": 1.58, "unit": "log2"}, {"measurement": "LOC100506305 Fold Change (log2) [KDM4A SCNT/Control SCNT]", "result": 1.2, "unit": "log2"}, {"measurement": "LOC100506668 Fold Change (log2) [KDM4A SCNT/Control SCNT]", "result": 1.63, "unit": "log2"}, {"measurement": "LUC7L Fold Change (log2) [KDM4A SCNT/Control SCNT]", "result": 1.28, "unit": "log2"}, {"measurement": "M1 Fold Change (log2) [KDM4A SCNT/Control SCNT]", "result": 4.71, "unit": "log2"}, {"measurement": "MAGEA12 Fold Change (log2) [KDM4A SCNT/Control SCNT]", "result": 1.81, "unit": "log2"}, {"measurement": "MAGEB2 Fold Change (log2) [KDM4A SCNT/Control SCNT]", "result": 3.15, "unit": "log2"}, {"measurement": "MATR3 Fold Change (log2) [KDM4A SCNT/Control SCNT]", "result": 1.11, "unit": "log2"}, {"measurement": "MED31 Fold Change (log2) [KDM4A SCNT/Control SCNT]", "result": 1.44, "unit": "log2"}, {"measurement": "MFSD11 Fold Change (log2) [KDM4A SCNT/Control SCNT]", "result": 1.4, "unit": "log2"}, {"measurement": "MPV17L2 Fold Change (log2) [KDM4A SCNT/Control SCNT]", "result": 1.54, "unit": "log2"}, {"measurement": "MRPL28 Fold Change (log2) [KDM4A SCNT/Control SCNT]", "result": 1.59, "unit": "log2"}, {"measurement": "MTERF Fold Change (log2) [KDM4A SCNT/Control SCNT]", "result": 2.39, "unit": "log2"}, {"measurement": "NANOGNB Fold Change (log2) [KDM4A SCNT/Control SCNT]", "result": 1.79, "unit": "log2"}]}
